Reference: patent publication US12319655B2, “RAF kinase inhibitors and methods of use thereof” (Deciphera Pharmaceuticals, LLC, priority 2021, dated 2025)

Columns and labels:
[1] = target: C-Raf kinase (SEQ. ID NO: 3) (Homo sapiens (Human), UniProt P04049, Y340D/Y341D); experiment: Biochemical Assay for C-Raf (1); conditions: Table J, assay version (1); read-out: CRAF (1) IC50
Summary of the method: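 IC50 values come from a four-parameter fit of percent inhibition, using the reaction rate over 4–5 h of a 6 h continuous 340 nm read at 30 °C. The enzyme mix was C-Raf 0.43 nM, MEK substrate 30.1 nM and ATP 1 mM, in a PK/LDH NADH-coupled format in Tris pH 7.5 with 1% DMSO.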

A375 cells = experiment: A375 Cell Proliferation Assay (1); format: cell-based; conditions: Homo sapiens, A-375
Summary of the method: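 Resazurin fluorescence (excitation 540 nm, emission 600 nm, after a further 5-6 h) gave IC50s from triplicate compound dilution series.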

[2] = target: A-Raf kinase (SEQ. ID No: 1) (Homo sapiens (Human), UniProt P10398, Y301D/Y302D); experiment: Biochemical Assay for A-Raf (1); conditions: Table J, assay version (1); read-out: ARAF (1) IC50
Chain of A-Raf kinase (SEQ. ID No: 1) (P10398 other isoform, or with tags, fused parts or gaps Y301D (already in the parent)/Y302D (already in the parent)): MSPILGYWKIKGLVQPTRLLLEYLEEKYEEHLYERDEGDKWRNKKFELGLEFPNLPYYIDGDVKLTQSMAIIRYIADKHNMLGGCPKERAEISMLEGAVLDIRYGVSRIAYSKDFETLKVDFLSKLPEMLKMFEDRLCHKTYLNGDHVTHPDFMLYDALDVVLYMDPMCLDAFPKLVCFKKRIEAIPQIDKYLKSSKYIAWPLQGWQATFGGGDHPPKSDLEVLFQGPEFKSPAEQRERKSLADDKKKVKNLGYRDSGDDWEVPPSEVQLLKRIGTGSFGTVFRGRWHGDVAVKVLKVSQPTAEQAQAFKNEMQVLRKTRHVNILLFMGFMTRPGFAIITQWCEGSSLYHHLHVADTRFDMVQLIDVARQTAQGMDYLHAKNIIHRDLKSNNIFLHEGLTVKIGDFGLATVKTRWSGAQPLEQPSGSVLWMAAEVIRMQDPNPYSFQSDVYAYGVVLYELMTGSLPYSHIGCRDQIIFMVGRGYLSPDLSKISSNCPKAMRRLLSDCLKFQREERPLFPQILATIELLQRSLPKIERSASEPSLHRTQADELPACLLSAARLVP
Summary of the method: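 IC50 values were derived by four-parameter sigmoidal fitting of percent inhibition, calculated from reaction rates over the 4–5 h window. Absorbance at 340 nm was tracked for 6 h at 30 °C via coupled PK/LDH NADH depletion. Conditions: 1 mM ATP, 30.1 nM MEK substrate, 5.55 nM A-Raf (Y301D/Y302D), Tris pH 7.5, 1% DMSO.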

WM3928 cells = experiment: WM3928 Cell Proliferation Assay (1); format: cell-based
Experimental: WM3928 Cell Proliferation Assay (1)
WM3928 cells (#WM3928-01-0001) are obtained from Rockland Immunochemicals Inc (Gilbertsville, PA). Briefly, cells were grown in MCDB 153 medium (Sigma, #M7403, St. Louis, MO) supplemented with 20% Leibovitz's L-15 (ThermoFisher #11415-064, Waltham, MA), 2% heat inactivated fetal bovine serum (ThermoFisher, #A3840001, Waltham, MA), 5 μg/mL Insulin (Bovine Pancreas) (Sigma, #I0516, St. Louis, MO), 1.68 mM Calcium Chloride (Sigma, #C-34006, St. Louis, MO) and 1% Penicillin/Streptomycin/L-Glutamine (ThermoFisher #10378016, Waltham, MA) at 37° C., 5% CO2, and 95% humidity. Cells are expanded until reaching 70-95% confluency at which point they are subcultured or harvested for assay use. A serial dilution of test compound is dispensed into a 96-well black clear bottom plate in triplicate. Three thousand cells are added per well in 200 μL complete growth medium in the 96-well plate. Plates are incubated for 67-72 hours at 37° C., 5% CO2, and 95% humidity. At the end of the incubation, 40 μL of a 440 μM solution of resazurin (Sigma, #199303, St. Louis, MO) in PBS is added to each well of the plate and plates are incubated for an additional 6-7 hours at 37° C., 5% CO2, and 95% humidity. Plates are read on a Synergy2 or equivalent reader (Biotek, Winooski VT) using an excitation of 540 nm and an emission of 600 nm. Data is analyzed using Prism software (GraphPad, San Diego, CA) to calculate IC50 values.

Chain of C-Raf kinase (SEQ. ID NO: 3) (P04049 307-648 Y340D/Y341D): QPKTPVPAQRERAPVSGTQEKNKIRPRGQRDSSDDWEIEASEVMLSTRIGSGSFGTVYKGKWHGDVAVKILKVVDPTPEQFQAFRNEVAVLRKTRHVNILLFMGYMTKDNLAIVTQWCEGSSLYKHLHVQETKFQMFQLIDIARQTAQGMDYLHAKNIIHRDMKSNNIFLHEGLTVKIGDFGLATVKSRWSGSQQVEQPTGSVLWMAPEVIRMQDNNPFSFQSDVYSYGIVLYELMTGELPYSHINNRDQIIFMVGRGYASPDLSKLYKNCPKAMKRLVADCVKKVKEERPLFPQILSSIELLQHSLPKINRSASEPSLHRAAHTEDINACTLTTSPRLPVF

Row | SMILES | IC50 [1] [nM] | IC50 (A375 cells) [nM] | IC50 [2] [nM] | IC50 (WM3928 cells) [nM]
1 | CC(=O)Nc1cc(-c2cc(-c3cc(NC(=O)c4ccnc(C(F)(F)F)c4)c(F)cc3C)cc(C)n2)ccn1 [Example 4] | ≤ 100 | 100 to 500 | 1000 to 10000 | 
2 | CC(=O)Nc1cc(-c2cc(-c3cc(NC(=O)c4ccnc(C(F)(F)F)c4)ccc3C)cc(C)n2)ccn1 [Example 5] | ≤ 100 | 100 to 500 | 1000 to 10000 | ≤ 100
3 | CC(=O)Nc1cc(-c2cc(-c3cc(NC(=O)c4ccnc(C(F)(F)F)c4)ccc3C)ccn2)ccn1 [Example 6] | ≤ 100 | ≤ 100 | 100 to 500 | 
4 | Cc1cc(F)c(NC(=O)c2ccnc(C(F)(F)F)c2)cc1-c1ccnc(-c2ccnc(NC(=O)CN(C)C)c2)c1 [Example 7] | ≤ 100 | 500 to 1000 | 1000 to 10000 | 
5 | CCOc1cc(-c2cc(NC(=O)c3ccnc(C(F)(F)F)c3)ccc2C)cc(-c2ccnc(NC(C)=O)c2)n1 [Example 8] | ≤ 100 | ≤ 100 | 1000 to 10000 | 
6 | CC(=O)Nc1cc(-c2cc(-c3cc(NC(=O)c4ccnc(C(F)(F)F)c4)c(F)cc3C)cc(OC(C)C)n2)ccn1 [Example 10] | 100 to 500 | ≤ 100 | 1000 to 10000 | ≤ 100
7 | CC(=O)Nc1cc(-c2cc(-c3cc(NC(=O)c4ccnc(C(F)(F)F)c4)ccc3C)cc(=O)n2C)ccn1 [Example 11] | ≤ 100 | 1000 to 10000 | 1000 to 10000 | 
8 | Cc1ncc(NC(=O)c2ccnc(C(F)(F)F)c2)cc1-c1cccc(-c2ccnc(N)c2)c1 [Example 94] | ≤ 100 | 1000 to 10000 | 1000 to 10000 | 
9 | Cc1ncc(NC(=O)c2cccc(C(F)(F)F)c2)cc1-c1cccc(-c2ccnc(NC(=O)CC#N)c2)c1 [Example 97] | ≤ 100 | 100 to 500 | 500 to 1000 | ≤ 100
10 | Cc1ccc(NC(=O)c2ccnc(C(F)(F)F)c2)cc1-c1cncc(-c2ccnc(NC(=O)CC#N)c2)n1 [Example 98] | ≤ 100 | 500 to 1000 | 100 to 500 | 
11 | COCC(=O)Nc1cc(-c2cncc(-c3cc(NC(=O)c4ccnc(C(F)(F)F)c4)ccc3C)n2)ccn1 [Example 99] | ≤ 100 | 500 to 1000 | 1000 to 10000 | 
12 | Cc1ccc(NC(=O)c2ccnc(C(F)(F)F)c2)cc1-c1cncc(-c2ccnc(NC(=O)CN(C)C)c2)n1 [Example 100] | ≤ 100 | 100 to 500 | 1000 to 10000 | 
13 | Cc1ccc(NC(=O)c2ccnc(C(C)(C)C#N)c2)cc1-c1ccnc(-c2ccnc3c2CC(=O)N3)n1 [Example 101] | ≤ 100 | 500 to 1000 | 1000 to 10000 | 100 to 500
14 | CC(=O)Nc1cc(-c2cc(-c3cc(NC(=O)c4ccnc(C(F)(F)F)c4)ccc3C)cn(CCO)c2=O)ccn1 [Example 102] | 100 to 500 | 1000 to 10000 | 1000 to 10000 | 
15 | CC(=O)Nc1cc(-c2ccnc(-c3cc(NC(=O)c4ccnc(C(C)(C)C#N)c4)ccc3C)n2)ccn1 [Example 103] | ≤ 100 | ≤ 100 | 500 to 1000 | ≤ 100
16 | Cc1cc(F)c(NC(=O)c2ccnc(C(C)(C)C#N)c2)cc1-c1ccnc(-c2ccnc(NC=O)c2)c1 [Example 104] | ≤ 100 | ≤ 100 | 1000 to 10000 | ≤ 100
17 | Cc1ncc(NC(=O)c2ccnc(C(C)(C)C#N)c2)cc1-c1cccc(-c2ccnc3c2CC(=O)N3)c1 [Example 105] | ≤ 100 | 1000 to 10000 | 1000 to 10000 | 100 to 500
18 | CNC(=O)c1cc(-c2cccc(-c3cc(NC(=O)c4ccnc(C(F)(F)F)c4)ccc3C)c2)ncn1 [Example 106] | ≤ 100 | 500 to 1000 | 1000 to 10000 | 
19 | CC(=O)Nc1cc(-c2nccc(-c3cc(NC(=O)c4ccnc(C(F)(F)F)c4)c(F)cc3C)n2)ccn1 [Example 107] | ≤ 100 | 100 to 500 | 500 to 1000 | 
20 | Cc1ccc(NC(=O)c2cccc(C(C)(C)C#N)c2)cc1-c1cc(OCCO)nc(-c2ccnc3c2CC(=O)N3)c1 [Example 108] | ≤ 100 | ≤ 100 | 1000 to 10000 | ≤ 100

Row | SMILES | IC50 [1] [nM] | IC50 (A375 cells) [nM] | IC50 [2] [nM] | IC50 (WM3928 cells) [nM]
21 | Cc1ccc(NC(=O)c2ccnc(C(C)(C)C#N)c2)cc1-c1cccc(-c2ncnc3c2CC(=O)N3)c1 [Example 109] | ≤ 100 | 100 to 500 | 1000 to 10000 | ≤ 100
22 | Cc1ncc(NC(=O)c2ccnc(C(C)(C)C#N)c2)cc1-c1cccc(-c2ncnc3c2CC(=O)N3)c1 [Example 110] | 100 to 500 | 1000 to 10000 | 1000 to 10000 | 500 to 1000
23 | Cc1ncc(NC(=O)c2ccnc(C(C)(C)C#N)c2)cc1-c1cccc(-c2ccnc3[nH]cnc23)c1 [Example 111] | 100 to 500 | 1000 to 10000 | 1000 to 10000 | 1000 to 10000
24 | Cc1ccc(NC(=O)c2ccnc(C(C)(C)C#N)c2)cc1-c1cncc(-c2ccnc(NC(=O)C3CC3)c2)n1 [Example 112] | ≤ 100 | ≤ 100 | 500 to 1000 | ≤ 100
25 | CC(=O)Nc1cc(-c2cc(-c3cc(NC(=O)c4ccnc(C(C)(C)C#N)c4)ccc3C)cn(C)c2=O)ccn1 [Example 113] | ≤ 100 | 100 to 500 | 1000 to 10000 | 100 to 500
26 | COc1cc(C(=O)Nc2ccc(C)c(-c3cncc(-c4ccnc(NC(C)=O)c4)n3)c2)ccc1F [Example 120] | ≤ 100 | 1000 to 10000 | 1000 to 10000 | 
27 | CC(=O)Nc1cc(-c2cncc(-c3cc(NC(=O)c4ccc(Cl)c(C(F)(F)F)c4)ccc3C)n2)ccn1 [Example 121] | ≤ 100 | 100 to 500 | 1000 to 10000 | 
28 | CNC(=O)c1cc(-c2cc(-c3cc(NC(=O)c4cccc(C(C)(C)C#N)c4)ccc3C)ccn2)ccn1 [Example 127] | ≤ 100 | ≤ 100 | 1000 to 10000 | 
29 | COCC(=O)Nc1cc(-c2cccc(-c3cc(NC(=O)c4ccnc(C(F)(F)F)c4)cnc3C)n2)ccn1 [Example 130] | ≤ 100 | 1000 to 10000 | 1000 to 10000 | 
30 | Cc1ccc(NC(=O)c2ccnc(C(C)(C)C#N)c2)cc1-c1cccc(-c2ccnc3[nH]ccc23)c1 [Example 133] | 100 to 500 | 1000 to 10000 | 1000 to 10000 | 
31 | CNC(=O)c1cc(-c2cncc(-c3cc(NC(=O)c4cc(C(F)(F)F)ccn4)ccc3C)n2)ccn1 [Example 135] | ≤ 100 | 500 to 1000 | 1000 to 10000 | 
32 | CNC(=O)c1cc(-c2cncc(-c3cc(NC(=O)c4cccc(C(C)(C)C#N)c4)ccc3C)n2)ccn1 [Example 136] | ≤ 100 | ≤ 100 | 1000 to 10000 | 
33 | CNC(=O)c1cc(-c2cncc(-c3cc(NC(=O)c4ccnc(C5(C#N)CC5)c4)ccc3C)n2)ccn1 [Example 138] | ≤ 100 | 100 to 500 | 1000 to 10000 | 
34 | CNC(=O)c1cc(-c2cncc(-c3cc(NC(=O)c4ccnc(C5CC5)c4)ccc3C)n2)ccn1 [Example 139] | ≤ 100 | 1000 to 10000 | 1000 to 10000 | 
35 | Cc1ccc(NC(=O)c2ccnc(C(C)(C)C#N)c2)cc1-c1cncc(-c2ccnc(N)c2)n1 [Example 141] | ≤ 100 | 1000 to 10000 | 1000 to 10000 | 
36 | COCC(=O)Nc1cc(-c2cncc(-c3cc(NC(=O)c4ccnc(C(C)(C)C#N)c4)ccc3C)n2)ccn1 [Example 142] | ≤ 100 | ≤ 100 | 1000 to 10000 | 
37 | COCCNc1cc(-c2cncc(-c3cc(NC(=O)c4ccnc(C(C)(C)C#N)c4)ccc3C)n2)ccn1 [Example 143] | ≤ 100 | 1000 to 10000 | 1000 to 10000 | 
38 | CC(=O)Nc1cc(-c2nccc(-c3cc(NC(=O)c4cc(C(F)(F)F)ccn4)ccc3C)n2)ccn1 [Example 153] | ≤ 100 | ≤ 100 | 100 to 500 | 
39 | CNC(=O)c1cc(-c2nccc(-c3cc(NC(=O)c4ccnc(C(C)(C)C#N)c4)c(F)cc3C)n2)ccn1 [Example 166] | 100 to 500 | 100 to 500 | 1000 to 10000 | 
40 | CNc1cc(-c2cncc(-c3cc(NC(=O)c4ccnc(C(C)(C)C#N)c4)ccc3C)n2)ccn1 [Example 173] | ≤ 100 | 500 to 1000 | 1000 to 10000 | 
